Assay results reported in ChEMBL document CHEMBL4665622, “Repurposing ibuprofen to control Staphylococcus aureus biofilms” (2019).
The source made the active and inactive calls. The calls are words filed in the database; no cut-off is given here.

Assays:
Staphylococcus aureus [1] = assay: Antibiofilm activity against Staphylococcus aureus RN4220 preform-matured biofilm assessed as reduction in CFU per cm2 at 10 times of MIC incubated upto 24 hrs; assay type: functional; conditions: time hrs <=24
Staphylococcus aureus [2] = assay: Antibiofilm activity against Staphylococcus aureus RN4220 preform-matured biofilm assessed as reduction in CFU per cm2 at 5 times of MIC incubated upto 24 hrs; assay type: functional; conditions: time hrs <=24
Staphylococcus aureus [3] = assay: Antibiofilm activity against Staphylococcus aureus SA1199B preform-matured biofilm assessed as reduction in CFU at 5 and 10 times of MIC incubated upto 24 hrs relative to control; assay type: functional; parameters: scale not given: the % may be the effect or the level left; conditions: time hrs <=24
Staphylococcus aureus [4] = assay: Antibiofilm activity against Staphylococcus aureus XU212 preform-matured biofilm assessed as reduction in CFU upto 10 times of MIC incubated upto 24 hrs relative to control; assay type: functional; parameters: scale not given: the % may be the effect or the level left; conditions: time hrs <=24
Staphylococcus aureus [5] = assay: Antibiofilm activity against Staphylococcus aureus SA1199B preform-matured biofilm assessed as increase in biofilm inactivation upto 10 times of MIC incubated upto 24 hrs relative to control; assay type: functional; conditions: time hrs <=24
Staphylococcus aureus [6] = assay: Antibiofilm activity against Staphylococcus aureus XU212 preform-matured biofilm assessed as increase in biofilm removal at MIC incubated upto 24 hrs relative to control; assay type: functional; conditions: time hrs <=24
Staphylococcus aureus [7] = assay: Antibiofilm activity against Staphylococcus aureus XU212 preform-matured biofilm assessed as increase in biofilm inactivation upto 10 times of MIC incubated upto 24 hrs relative to control; assay type: functional; conditions: time hrs <=24
Staphylococcus aureus [8] = assay: Antibiofilm activity against Staphylococcus aureus XU212 preform-matured biofilm assessed as increase in biofilm removal at 5 and 10 times of MIC incubated upto 24 hrs relative to control; assay type: functional; conditions: time hrs <=24
Staphylococcus aureus [9] = assay: Antibiofilm activity against Staphylococcus aureus SA1199B preform-matured biofilm assessed as increase in biofilm removal at 5 and 10 times of MIC incubated upto 24 hrs relative to control; assay type: functional; conditions: time hrs <=24
Staphylococcus aureus [10] = assay: Antibiofilm activity against Staphylococcus aureus SA1199B preform-matured biofilm assessed as increase in biofilm removal at MIC incubated upto 24 hrs relative to control; assay type: functional; conditions: time hrs <=24
Staphylococcus aureus [11] = assay: Antibiofilm activity against Staphylococcus aureus RN4220 preform-matured biofilm assessed as increase in biofilm removal at 5 and 10 times of MIC incubated upto 24 hrs relative to control; assay type: functional; conditions: time hrs <=24
Staphylococcus aureus [12] = assay: Antibiofilm activity against Staphylococcus aureus RN4220 preform-matured biofilm assessed as increase in biofilm removal at MIC incubated upto 24 hrs relative to control; assay type: functional; conditions: time hrs <=24
Staphylococcus aureus [13] = assay: Antibiofilm activity against Staphylococcus aureus CECT 976 preform-matured biofilm assessed as reduction in CFU per cm2 at MIC incubated for 6 hrs; assay type: functional
Staphylococcus aureus [14] = assay: Antibiofilm activity against Staphylococcus aureus CECT 976 preform-matured biofilm assessed as reduction in CFU at MIC incubated for 24 hrs; assay type: functional, organism-based
Staphylococcus aureus [15] = assay: Antibiofilm activity against Staphylococcus aureus RN4220 preform-matured biofilm assessed as increase in biofilm inactivation upto 10 times of MIC incubated upto 24 hrs relative to control; assay type: functional; conditions: time hrs <=24
Staphylococcus aureus [16] = assay: Antibiofilm activity against Staphylococcus aureus CECT 976 preform-matured biofilm assessed as increase in biofilm inactivation at upto 10 times of MIC incubated upto 24 hrs relative to control; assay type: functional; conditions: time hrs <=24
Staphylococcus aureus [17] = assay: Antibiofilm activity against Staphylococcus aureus CECT 976 preform-matured biofilm assessed as increase in biofilm removal at upto 10 times of MIC incubated for 24 hrs; assay type: functional, organism-based; conditions: time 1.0 hrs
Staphylococcus aureus [18] = assay: Antibiofilm activity against Staphylococcus aureus CECT 976 preform-matured biofilm assessed as increase in biofilm removal at upto 10 times of MIC incubated for 1 hr; assay type: functional, organism-based
Staphylococcus aureus [19] = assay: Antibiofilm activity against Staphylococcus aureus CECT 976 preform-matured biofilm assessed as increase in biofilm removal at 10 times of MIC incubated for 6 hrs relative to control; assay type: functional
Staphylococcus aureus [20] = assay: Antibiofilm activity against Staphylococcus aureus CECT 976 preform-matured biofilm assessed as increase in biofilm removal at 5 times of MIC incubated for 6 hrs relative to control; assay type: functional
Staphylococcus aureus [21] = assay: Antibiofilm activity against Staphylococcus aureus CECT 976 preform-matured biofilm assessed as increase in biofilm removal at MIC incubated for 6 hrs relative to control; assay type: functional
Staphylococcus aureus [22] = assay: Inhibition of cell adhesion in Staphylococcus aureus CECT 976 assessed as decrease in CFU at 10 times of MIC incubated upto 24 hrs relative to control; assay type: functional; conditions: time hrs <=24
Staphylococcus aureus [23] = assay: Inhibition of cell adhesion in Staphylococcus aureus CECT 976 assessed as decrease in biomass content incubated upto 24 hrs; assay type: functional, organism-based; conditions: time hrs <=24
Staphylococcus aureus [24] = assay: Inhibition of cell adhesion in Staphylococcus aureus CECT 976 assessed as decrease in biomass content at upto 10 times of MIC incubated upto 24 hrs relative to control; assay type: functional; conditions: time hrs <=24
Cell membrane [25] = assay: Effect on surface tension of Staphylococcus aureus CECT 976 assessed as hydrophobicity at MIC incubated for 1 hr (reference value: 34.8 +/- 1.3 mJ/m2); assay type: subcellular
Cell membrane [26] = assay: Effect on surface tension of Staphylococcus aureus CECT 976 assessed as hydrophobicity at 0.5 times of MIC incubated for 1 hr (reference value: 34.8 +/- 1.3 mJ/m2); assay type: subcellular
Cell membrane [27] = assay: Effect on surface tension of Staphylococcus aureus CECT 976 assessed as hydrophobicity at 0.25 times of MIC incubated for 1 hr (reference value: 34.8 +/- 1.3 mJ/m2); assay type: subcellular
Cell membrane [28] = assay: Effect on surface tension of Staphylococcus aureus CECT 976 assessed as electron donor component at MIC incubated for 1 hr (reference value: 55 +/- 0.9 mJ/m2); assay type: subcellular
Cell membrane [29] = assay: Effect on surface tension of Staphylococcus aureus CECT 976 assessed as electron donor component at 0.5 times of MIC incubated for 1 hr (reference value: 55 +/- 0.9 mJ/m2); assay type: subcellular
Cell membrane [30] = assay: Effect on surface tension of Staphylococcus aureus CECT 976 assessed as electron donor component at 0.25 times of MIC incubated for 1 hr (reference value: 55 +/- 0.9 mJ/m2); assay type: subcellular
Cell membrane [31] = assay: Effect on surface tension of Staphylococcus aureus CECT 976 assessed as electron acceptor component at MIC incubated for 1 hr (reference value: 0.5 +/- 0.1 mJ/m2); assay type: subcellular

Activity (Cell membrane [25]): 30.1 mJ/m2
Activity (Cell membrane [26]): 27.9 mJ/m2
Activity (Cell membrane [27]): 27.3 mJ/m2
Activity (Cell membrane [28]): 50 mJ/m2
Activity (Cell membrane [29]): 49.7 mJ/m2
Activity (Cell membrane [30]): 48.8 mJ/m2
Activity (Cell membrane [31]): 1.7 mJ/m2
Compound: CC(C)Cc1ccc(C(C)C(=O)O)cc1 (stereo unspecified) [IBUPROFEN]
Activity (Staphylococcus aureus [1]): 2.5 log10CFU
Activity (Staphylococcus aureus [2]): 1.8 log10CFU
Activity (Staphylococcus aureus [3]): 100%
Activity (Staphylococcus aureus [4]): 100%
Activity (Staphylococcus aureus [5]): <=55%
Activity (Staphylococcus aureus [6]): <=14%
Activity (Staphylococcus aureus [7]): <=55%
Activity (Staphylococcus aureus [8]): 0%
Activity (Staphylococcus aureus [9]): 0%
Activity (Staphylococcus aureus [10]): <=14%
Activity (Staphylococcus aureus [11]): 0%
Activity (Staphylococcus aureus [12]): <=14%
Activity (Staphylococcus aureus [13]): 0.8 log10CFU
inhibition (Staphylococcus aureus [14]): Active
Activity (Staphylococcus aureus [15]): <=55%
inhibition (INH) (Staphylococcus aureus [16]): <=80%
inhibition (Staphylococcus aureus [17]): Dose-dependent effect
inhibition (Staphylococcus aureus [18]): Dose-dependent effect
inhibition (INH) (Staphylococcus aureus [19]): 39%
inhibition (INH) (Staphylococcus aureus [20]): 42%
inhibition (INH) (Staphylococcus aureus [21]): 42%
inhibition (INH) (Staphylococcus aureus [22]): 100%
inhibition (Staphylococcus aureus [23]): Dose-dependent effect
inhibition (INH) (Staphylococcus aureus [24]): <=38.5%
